Laboratory results as given in patent US9278086B2, “Combination therapy and uses thereof for treatment and prevention of parasitic infection and disease” (The Royal Institution for the Advancement of …, priority 2010, dated 2016).
Marks after values point to notes of the source that are not given here.

Legend:
Format in all cases: in vivo
Plasmodium chabaudi [1] = experiment: 4-day test, P. chabaudi (10^7 pRBC i.v.) in pantetheinase-deficient A/J mice, blood parasitemia days 4 and 5; settings: for inhibition of parasitemia compared to PBS-treated controls: ART 0.2 mg/kg alone; for Inhibition of parasitemia Day 4 / Inhibition of parasitemia Day 5: days 0-3
Description: (§1) A/J and C57BL/6 (B6) mice were purchased from the Jackson Laboratories (Bar Harbor, Me.) and were housed at McGill University according to the guidelines of the Canadian Council on Animal Care. An LDH virus-free isolate of P. chabaudi AS was maintained by weekly passage in A/J mice. Mice were infected intravenously into the tail vein (i.v.) with 10^6 or 10^7 pRBC suspended in pyrogen-free saline. Following infection, the percentage of pRBC was determined daily on thin blood smears stained with Dif-Quik™ (Dade Behring, Newark, Del.), as described (Fortin A, et al. (2001) Proc Natl Acad Sci USA 98: 10793-10798).
(§2) Cysteamine hydrochloride (Sigma, Burlington ON) was prepared in PBS. Chloroquine hydrochloride, artesunate and dihydroartemisinin were provided by Dafra Pharmaceuticals; chloroquine was prepared in PBS, artesunate and DHA were prepared in 5% sodium bicarbonate and diluted in water to appropriate concentrations. All solutions were prepared fresh daily, filter sterilized and injections were performed intra-peritoneally (i.p) or subcutaneously (s.c.) for 4 days or according to treatment regimen. Mice were weighed prior to treatment to determine appropriate doses and injection volumes ranged from 100-400 μL per mouse. In the case of animals treated with two drugs, artemisinin derivatives were administered first (due to the short half life of cysteamine), followed by cysteamine 5-10 minutes later on alternate sides. Untreated control animals were injected with PBS alone.
(§3) Groups with normally distributed data points were compared using parametric unpaired t-tests, while groups with non-Gaussian distributions were compared using non-parametric Mann-Whitney tests. Survival differences were analyzed using the Log-Rank test. […] Standard error of percent inhibition was calculated from individual mice compared to the mean parasitemia level of the control group.
(§4) The effect of Cys on the potency and efficacy of the anti-malarial artemisinin derivatives was tested. […] Synergy (Tallarida R J (2001) J Pharmacol Exp Ther 298: 865-872) is defined as a total anti-malarial activity (reduction in blood parasitemia compared to untreated controls in a standard 4-day test) of the two compounds administered together being greater than the sum of the independent activities of the two compounds given alone. We tested combinations of Cys and either artesunate (ART) or dihydroartemisinin (DHA), the bioactive form of artemisinin. Pantetheinase-deficient mice were infected with P. chabaudi (10^7 pRBC, i.v.) and treated with Cys (170 mg/kg) and/or sub-optimal doses of ART (0.2 or 0.5 mg/kg) (FIG. 3A) or DHA (0.15 or 0.3 mg/kg) (FIG. 3B) from day 0-3 and parasitemia was monitored on days 4 and 5. […] Potentiation of the anti-malarial activity of ART (0.5 mg/kg) by Cys was also clearly evident in these C57BL/6 mice at both days 4 and 5 post-infection, with combined treatment causing a 65-71% reduction in parasitemia compared to PBS controls, greater than either compound tested alone (13-29%) (TABLE 1).
It was subsequently examined whether Cys potentiation of ART was dose dependent. Initially, Cys doses of 60, 100, 140 and 180 mg/kg were tested with a sub-optimal ART dose of 0.2 mg/kg. The drugs were administered from day 0-3 post infection, parasitemia was counted at day 4 and day 5 and the percent inhibition was calculated compared to PBS-treated controls (FIG. 4A). At 0.2 mg/kg, ART alone inhibits parasitemia by ˜20% (day 4) and 40% (day 5) while inhibition by Cys alone was partially dose dependent (varying between 10% and 25%). […] It was also assessed whether Cys could potentiate low doses of artesunate which, given alone, have no significant effect on parasitemia. In this experiment, Cys (170 mg/kg) was administered in combination, or not, with increasing doses of ART (0.05, 0.1, 0.2, 0.4 mg/kg) in the same 4-day experimental protocol.

Plasmodium chabaudi [2] = experiment: 4-day test, P. chabaudi (10^7 pRBC i.v.) in pantetheinase-sufficient C57BL/6 mice, blood parasitemia days 4 and 5; settings: for Inhibition of parasitemia Day 4 / Inhibition of parasitemia Day 5: days 0-3
Description: as §1, §2, §3, §4

Plasmodium chabaudi [3] = experiment: Progression, resolution and survival of lethal P. chabaudi infection (10^6 pRBC i.v.) in A/J mice
Description: as §1, §2
It was investigated if low dose Cys could potentiate standard doses of ART that show therapeutic activity in vivo and concurrently determined possible long-term effects on patent parasitemia, resolution of infection and survival in a lethal infection model. In this protocol, mice were infected with 10^6 pRBC P. chabaudi (i.v.) and treated with Cys (60 mg/kg) and/or ART (0.5, 1, 2, 5 and 10 mg/kg) for 4 days (days 0-3), while blood parasitemia and survival were followed for 22 days. Control animals treated with either PBS or Cys alone (60 mg/kg) developed high parasite burdens, which peaked at day 6, and all mice succumbed to the infection by day 7 (FIGS. 5A and 5C). […] Likewise, although all mice treated with 0.5 mg/kg ART succumbed to the infection early (day 8), mice additionally receiving Cys survived until day 9; moreover, addition of Cys to 1.0 mg/kg ART completely rescued animals from lethality of infection, with 100% survival in this group (FIGS. 5B, 5C).

Plasmodium chabaudi [4] = experiment: Progression of P. chabaudi infection (10^6 pRBC i.v.) in pantetheinase-sufficient B6 mice
Description: as §1, §2
To investigate whether the effects on parasite burden over the course of infection would also be observed with a pantetheinase-sufficient mouse strain, a similar experiment was performed using female B6 mice. Groups of mice were infected with 10^6 P. chabaudi pRBC i.v. and treated with PBS, 1 mg/kg or 30 mg/kg of Art, or 1 mg/kg or 30 mg/kg of Art plus 60 mg/kg of Cys for 4 days. […] As in A/J mice, the effect of Cys addition to 1 mg/kg of Art has a clear effect on early parasite replication at day 6 (FIG. 6B). […] B6 mice were able to completely clear parasite burdens and survive the infection, even in the control PBS-treated group.

Plasmodium berghei ANKA = Plasmodium berghei ANKA infection (cerebral malaria model) in C57BL/6J mice, parasitemia and survival
Description: FIGS. 8A and 8B show the results of two independent experiments on the effect of cysteamine and artesunate combinations on the progression of Plasmodium berghei ANKA infection (parasitemia). Groups of 5 adult 18-20 g C57BL/6J males and females were infected intravenously with 1×10^6 erythrocytes parasitized with P. berghei ANKA at time “0”. Two hours later, mice were injected i.p with either Artemisinin alone or with Artemisinin/Cysteamine combinations (at the indicated concentrations in mg/kg body weight). In the case of the latter, Artemisinin was injected first in one quadrant, and cysteamine was injected second, 10-15 minutes later in another quadrant. The drug treatment was further repeated at days 1, 2 and 3 post-infection to emulate the standard 4-day test used in anti-malarial drug discovery. Starting at day 5, blood was collected, thin blood smears were prepared, and parasitemia was determined (400 erythrocytes counted, expressed as percentage parasitized erythrocytes). Error bars show standard deviations on the mean; and
FIGS. 9A and 9B show the results of two independent experiments on the effect of cysteamine and artesunate combinations on the survival of Plasmodium berghei ANKA-infected mice. Infection and drug administration were performed as described above for FIGS. 8A and 8B. Animals were monitored for the appearance and severity of cerebral symptoms (CM phase, shown as rectangle in graph), and moribund animals were euthanized, and time of death was recorded.
Intravenous infection with Plasmodium berghei ANKA is an accepted mouse model of cerebral malaria (CM) (Hunt, N. H. et al. 2006, Int. J. Parasitol. 36: 569-582). The infection causes the following pathology. First, there is appearance of blood parasitemia, starting at days 3 or 4, which can go up to 10% by day 7-8. Starting at day 5-6, there is emergence of cerebral symptoms caused by permeability of the blood brain barrier, concomitant to trapping of parasitized red cells in the microvasculature and acute pathological host inflammatory response in situ. This cerebral phase quickly progresses from tremors, to paralysis, to coma, and is uniformly lethal in mice by days 8-10. In this model, progress of infection and possibly drug effects may be monitored by a) appearance and intensity of blood parasitemia (between days 5-8), b) appearance of cerebral symptoms, and c) lethality.

[5] = A/J mice, artesunate 0.2 mg/kg + cysteamine 170 mg/kg i.p.
[6] = A/J mice, artesunate 0.2 mg/kg alone
[7] = A/J mice, artesunate 0.5 mg/kg + cysteamine 170 mg/kg i.p.
[8] = A/J mice, artesunate 0.5 mg/kg alone
[9] = artesunate 0.5 mg/kg + cysteamine 170 mg/kg i.p.

## C[C@H]1[C@H](OC(=O)CCC(=O)O)O[C@@H]2O[C@@]3(C)CC[C@H]4[C@H](C)CC[C@@H]1[C@@]24OO3 [Artesunate, artesunate]
Plasmodium chabaudi [1]; A/J mice, day 4 (FIG. 4A)
  inhibition of parasitemia compared to PBS-treated controls: ~20%
Plasmodium chabaudi [1]; A/J mice, day 5 (FIG. 4A)
  inhibition of parasitemia compared to PBS-treated controls: 40%
Plasmodium chabaudi [1]; A/J mice, ART 0.1 and 0.2 mg/kg combined with Cys 170 mg/kg (FIG. 4C)
  inhibition of parasitemia replication: 60-75%
Plasmodium chabaudi [1]; A/J mice, ART 0.1 and 0.2 mg/kg used alone (FIG. 4C)
  inhibition of parasitemia replication: < 10%
Plasmodium chabaudi [1]; A/J mice, Cys 170 mg/kg added to ART (0.2 or 0.5 mg/kg) or DHA (0.15 or 0.3 mg/kg)
  effect of addition of Cys on inhibition of parasitemia versus additive effect of the two compounds: synergistic effect
Plasmodium chabaudi [1]; A/J mice, Cys 170 mg/kg with ART 0.05, 0.1, 0.2, 0.4 mg/kg (FIG. 4C)
  potentiation of low-dose artesunate by Cys: ≥ 3 fold
Plasmodium chabaudi [1]; [5]
  Inhibition of parasitemia Day 4: 65* % PBS control
  Inhibition of parasitemia Day 5: 56* % PBS control
Plasmodium chabaudi [1]; [6]
  Inhibition of parasitemia Day 4: 30 % PBS control
  Inhibition of parasitemia Day 5: 20 % PBS control
Plasmodium chabaudi [1]; [7]
  Inhibition of parasitemia Day 4: 93 % PBS control
  Inhibition of parasitemia Day 5: 80* % PBS control
Plasmodium chabaudi [1]; [8]
  Inhibition of parasitemia Day 4: 65 % PBS control
  Inhibition of parasitemia Day 5: 43 % PBS control
Plasmodium chabaudi [1]; mice receiving both Cys and ART/DHA, compared to PBS or only one compound
  symptoms of disease (ruffled fur, lethargy): fewer symptoms of disease
Plasmodium chabaudi [2]; ART 0.5 mg/kg combined with Cys 170 mg/kg, days 4 and 5
  reduction in parasitemia compared to PBS controls: 65-71%
Plasmodium chabaudi [2]; [9]
  Inhibition of parasitemia Day 4: 71* % PBS control
  Inhibition of parasitemia Day 5: 65* % PBS control
Plasmodium chabaudi [2]; artesunate 0.5 mg/kg alone
  Inhibition of parasitemia Day 4: 29 % PBS control
  Inhibition of parasitemia Day 5: 21 % PBS control
Plasmodium chabaudi [3]; ART 0.5 mg/kg + Cys 60 mg/kg
  day until which mice survived: 9 days
Plasmodium chabaudi [3]; ART 0.5 mg/kg alone
  day at which all mice succumbed to the infection: 8 days
Plasmodium chabaudi [3]; ART 1.0 mg/kg + Cys 60 mg/kg
  survival: 100%
Plasmodium chabaudi [3]; ART alone 0.5-10 mg/kg, dose-dependent
  effect on infection (onset and peak of parasitemia): delay in the onset of parasitemia and a reduction of peak parasitemia
Plasmodium chabaudi [3]; Cys 60 mg/kg added to 0.5 mg/kg or 1 mg/kg ART
  further reduction in parasitemia at day 6: 60-70%
Plasmodium chabaudi [3]; Cys 60 mg/kg added to all ART doses tested
  peak levels of parasitemia relative to the corresponding dose of ART alone: reduction of peak levels of parasitemia
Plasmodium chabaudi [4]; 30 mg/kg Art plus Cys 60 mg/kg
  outward symptoms of disease (lethargy, ruffled fur): did not display any outward symptoms of disease
  parasite levels: under 12 % pRBC
Plasmodium chabaudi [4]; Art 1 or 30 mg/kg + Cys 60 mg/kg, 4 days
  parasite levels and peak compared to Art administered alone: reduction in parasite levels and a delay in the peak

## C[C@@H]1CCC2[C@@H](C)C(=O)O[C@@H]3O[C@]4(C)CCC1C23OO4 (some centres unmarked) [Artemisinin]
Plasmodium berghei ANKA; Artemisinin 5 or 10 mg/kg + Cysteamine i.p., days 0-3
  rise and absolute levels of parasitemia (days 6-8) versus Artemisinin alone: delay in the rise of parasitemia
Plasmodium berghei ANKA; cysteamine added to Artemisinin
  prolongation of survival over Artemisinin alone: 1 to 2 days
Plasmodium berghei ANKA; two independent experiments (FIG. 8A, 8B)
  effect of adding cysteamine compared with doubling the dose of Artemisinin: comparable (FIG. 8A) or superior (FIG. 8B)
